In patent US20160367578A1, “METHODS AND COMPOSITIONS FOR ERADICATING LEUKEMIC CELLS” (priority 2013, published 2016):
Where two headings read alike, the source gives them in different places.

Experiments:
[1] = test system: MLL-AF9 cells; assay: Viability of MLL-AF9 cells exposed to CBX for 16 hours (7AAD FACS); format: cell-based, mouse; set-up: MLL-AF9 cell death: dose or concentration left out as unconfirmed
Procedure: Cells were distinguished by Cd45.1/CD45.2 expression and cell viability was determined by % of 7AAD-negative cells, in FACS analysis. (*p<0.01).
We then asked how blockage of gap junction intercellular communication affects AML cells, without additional treatment. […] In order to exclude the possibility of clone specific effects, we have repeated the experiments with a different MLL-AF9 clone, generated independently, and also included HoxA9/Meis1 AML cells that represent a different type of AML.

[2] = test system: freshly isolated primary non-leukemic normal human leukocytes; assay: Colony formation assay (CFU-C) on normal human leukocytes; format: cell-based
[3] = test system: freshly isolated primary human leukocytes; assay: Neutrophil differentiation (CD66b+/CD14-) by FACS in primary human leukocytes; format: cell-based; details: 16 hours
[4] = test system: primary MLL-AF9 cells; assay: Differentiation assay, Gr-1 and Mac-1 expression in primary MLL-AF9 cells; format: cell-based, mouse; set-up: dose or concentration left out as unconfirmed; details: CBX for 16 hours; for differentiation of MLL-AF9 cells: Gr-1/Mac-1 expression
Procedure: Cell viability was determined by % of 7AAD-negative cells, in FACS analysis. (*p<0.01).
MLL-AF9 AML cells are undifferentiated myeloid progenitors that express both Gr-1 and Mac-1 antigens, whereas mature myeloid cells express either Gr-1 (granulocytes) or Mac-1 (macrophages).

[5] = test system: human AML cell line HL60; assay: Neutrophil differentiation (CD66b+/CD14-) by FACS in HL60; format: cell-based; details: HL60, 16 hours
[6] = test system: MLL-AF9 cells; assay: MLL-AF9 viability under chemotherapy with or w/o MS-5 stromal layer, transwell inserts and CBX (7AAD FACS); format: cell-based, mouse
Text: Viability was detected via GFP expression and 7AAD exclusion.
To test this hypothesis, we evaluated the response of MLL-AF9 leukemic cells to chemotherapy in vitro, with and without supporting bone marrow stromal cells using time-lapse video microscopy combined with flow cytometry. […] MS-5 are murine bone-marrow stromal cells that were previously shown to support hematopoietic stem and progenitor cells (Itoh, et al., Experimental Hematology 21, 145-153 (1989) and Schajnovitz, et al., Nature Immunology 12, 391-8 (2011)). […] In order to distinguish between Stromal-leukemic (heterotypic) interactions and leukemic-leukemic (homotypic) interactions, we separated the MLL-AF9 from the stroma by transwell inserts, to restrict heterotypic interactions while allowing homotypic interactions.
Since adhesion interactions of hematopoietic cells are commonly accompanied with intercellular communication, we then tested the potential role of gap junctions activity in drug resistance. Gap junction intercellular channels, which are homo- and hetero-hexamers of connexin proteins, facilitate intercellular communication between contacting cells via the passage of secondary messengers, such as calcium and cAMP^17.

[7] = test system: Mac1 (CD11b, integrin αm) in MLL-AF9 cells; assay: Mac1 expression in CBX treated mice leukemic cells; format: cell-based, mouse; details: 7AAD-negative MLL-AF9 cells undergoing apoptosis
[8] = test system: human APL cell line HL60; assay: HL60 viability (flow cytometry) and colony formation after CBX; format: cell-based; details: viability 16 hours, colony formation 7 days post exposure
[9] = test system: normal bone marrow mononuclear cells (BM-MNC); assay: Normal bone marrow mononuclear cells in 1:1 mixture with MLL-AF9 cells after CBX; format: cell-based, mouse; details: CBX vs PBS
[10] = test system: human leukemic cancer stem and progenitor cells (THP1, HL60, U937); assay: Colony formation assay (CFU-C) on human leukemic cell lines; format: cell-based
[11] = test system: MLL-AF9 leukemia; set-up: autopsy finding: dose or concentration left out as unconfirmed
[12] = test system: Mac1 in human leukemic cell lines U937, HL60 and THP1; assay: Myelo-marker flow cytometry in CBX-treated human leukemic cell lines; format: cell-based; details: human leukemias, CBX 16 h
Text: FIGS. 34A-34D are bar graphs quantifying myelo-markers CD11b (FIG. 34A), CD14+ (FIG. 34B), CD66b+ (FIG. 34C), and CD66+/CD14+ (FIG. 34D) in CBX-treated primary normal human leukocytes as compared to CBX-treated human leukemic cell lines U937, HL60 and THP1.

[13] = test system: gap junctions; details: 100 μM; cited from earlier work
[14] = test system: bone marrow primary leukocytes (normal stem cells); assay: Colony formation assay (CFU-C) on bone marrow primary leukocytes; format: cell-based, mouse; details: increasing concentrations of carbenoxolone
[15] = 75 mg/kg CBX in combination with chemotherapy

For `CC1(C)[C@@H](OC(=O)CCC(=O)O)CC[C@]2(C)[C@H]3C(=O)C=C4[C@@H]5C[C@@](C)(C(=O)O)CC[C@]5(C)CC[C@@]4(C)[C@]3(C)CC[C@@H]12` [CBX, Carbenoxolone], the cells eradicated ([1]; 1001 μM CBX for 16 hours, CBX alone) was about 20%, the “eradication of MLL-AF9 leukemia” value ([1]; CBX at greater than or equal to 100 μM, 16 hours) was “eradication of MLL-AF9 leukemia” and the MLL-AF9 cell death ([1]; CBX, 16 hours) was about 70%. The “eradication of MLL-AF9 cells in 1:1 mixture with normal BM leukocytes” value ([1]; increasing CBX up to 400 μM, 16 hours) was “selectively eradicates”, the “effect on normal progenitors (CFU-C)” value ([2]; CBX 100 μM) was “induces proliferation of normal progenitors” and the “effect on normal human stem and progenitor cells (CFU-C)” value ([2]; increasing concentrations) was “inducing proliferation of normal human stem and progenitor cells”. For the same compound, the “neutrophil differentiation (CD66b+/CD14−)” value [3] was “does not induce neutrophil differentiation”, the “toxicity to MLL-AF9 cells” value [4] was “not toxic to the cells” and the “differentiation of MLL-AF9 cells” value [4] was “induces their differentiation into mature granulocytes”. The “differentiation of MLL-AF9 cells” value ([4]; listed as carbenoxolone) was “promotes differentiation of AML cells into short-lived granulocytes”, the “neutrophil differentiation (CD66b+/CD14−)” value [5] was “induces rapid (within 16 hours) neutrophil differentiation” and the stroma-mediated drug resistance ([6]; 25 nM cytarabine and 10 nM doxorubicin as chemo, 16 hours) was “overcomes stroma-mediated drug resistance”. The eradication ([6]; co-cultures separated with transwell inserts, CBX + chemotherapy) was “more than 90%”, the MLL-AF9 cells eradicated ([6]; coculture with MS-5, 100 μM CBX 20 minutes before induction chemotherapy) was about 90% and the “Mac1 (CD11b) expression” value [7] was “downregulated”. For the same compound, the “sensitivity of HL60” value [8] was “sensitive”, the “replenishment of normal healthy cells” value [9] was “enhances the replenishment of normal healthy cells” and the “effect on human leukemic progenitors (CFU-C)” value ([10]; CBX 100 μM) was “eradicates human leukemic progenitors”. The “effect on human leukemic cancer stem and progenitor cells (CFU-C)” value ([10]; increasing concentrations) was “eradicates human leukemic cancer stem and progenitor cells”, the CBX-treated mice survived ([11]; 25 mg/kg CBX alone or in combination with induction chemotherapy) was 40%-60% and the “survival vs PBS and chemotherapy controls” value ([11]; 25 mg/kg CBX in combination with induction chemotherapy) was “no statistically significant difference in survival”. The CBX-treated mice survived ([11]; 50 mg/kg CBX alone) was 20%, the survival ([11]; 50 mg/kg CBX alone) was “early mortality with no statistically significant difference” and the “survival vs PBS and chemotherapy controls” value ([11]; 50 mg/kg CBX in combination with chemotherapy) was “significant increased survival”. For the same compound, the “survival vs PBS controls” value ([11]; 75 mg/kg CBX alone) was “significant increased survival”, the CBX-treated mice survived [11, 15] was 20% and the survival [11, 15] was “early mortality with no statistically significant difference”. For the same compound, the “adverse effect of prolonged administration” value ([11]; SC, daily, 14 days) was “lethal pseudo-hyperadlosteronism with no sign of leukemia”, the “autopsy, signs of leukemia” value ([11]; chemotherapy plus 50 mg/kg CBX) was “no signs of leukemia” and the autopsy finding ([11]; mouse that died at day 28 after CBX treatment) was “gastric edema”. The “adverse effect of chronic systemic exposure” value ([11]; mouse, in vivo) was “acute lethal pseudo-hyperaldosteronism in some case”, the early mortality ([11]; mouse, in vivo) was “early mortality due to acute lethal pseudo-hyperadlosteronism” and the “cause of early mortality” value ([11]; mouse, in vivo, sc) was “most likely induced by acute pseudo-hyperaldosteronism, and not by leukemia”. The survival ([11]; mouse, in vivo, sc, 50 mg/kg) was “prolonged survival”, the survival ([11]; mouse, in vivo, sc, 75 mg/kg) was “prolonged survival” and the Mac1 expression [12] was “downregulated”. For the same compound, the “block of cell-cell communication” value [13] was “efficiently blocks cell-cell communication”, the cell viability [13] was “without affecting cell viability” and the “effect on normal stem cells (CFU-C)” value [14] was “inducing proliferation of normal stem cells”.
